{
  "source": "PubChem BioAssay AID2334",
  "about": "(Sanford-Burnham Center for Chemical Genomics, 2010)",
  "tested_on": "HEK293 NOD2/MDP-stimulated NF-kB reporter inhibition",
  "experiment": "PubChem AID 2334",
  "data": [
    {"smiles": "O=C(Nc1nc2c(F)cc(F)cc2s1)c1ccc([N+](=O)[O-])o1", "values": [
      {"measurement": "IC50", "result": 15.6, "unit": "µM"}
    ]}
  ]
}
